Bounds are passed on as bounds.

For this assay, the system named is antibody response to sheep blood cells (hemaglutination titer). The assay is described as follows: Immune regulating test: suppression of hemaglutination titer by 4-fold factor in mice (i.p. drug, i.p. sheep blood cells), Tables 1-15. The format is in vivo, Swiss mice. To be noted: Mus musculus, ip, 192 h, × 3, intraperitoneal, minimum dose to suppress the hemaglutination titer by a 4-fold factor, 8 days after antigen, read-out: Immuno-Suppressant ED4-Fold. As for the experimental part:
The ability of compounds according to the above formulas to alter immune mechanisms in a host animal was measured by their activity according to the following test. Groups of five 20-gram Swiss mice were injected intraperitoneally with standardized suspensions of an antigen--in this instance sheep blook cells. […] Eight days after injection of the antigen, the mice were bled and the sera from each group pooled. Antibody determinations were made on the serum pools by a hemaglutination pattern procedure and comparisons made between treated and control animals. In Tables 1-18 which follow, the activity of the compounds listed therein is given in terms of the minimum dose of drug necessary to suppress the hemaglutination titer by a 4-fold factor in the treated mice as compared with control titers.
For `Cc1cc2nc(NC(=O)Nc3ccc(F)cc3F)[nH]c2cc1C` [Table 5: 2,4-difluorophenyl, CH3, CH3], the minimal effective dose is 0.4 mg/kg.

For the compound `Cc1cccc(NC(=O)Nc2nc3cc(Cl)ccc3[nH]2)c1` [Table 2: m-tolyl], the minimal effective dose came out at 25 mg/kg.

Turning to `CCOC(=O)c1ccc2[nH]c(NC(=O)Nc3ccccc3F)nc2c1` [Table 3: o-fluorophenyl], the minimal effective dose was under 6.2 mg/kg.

On to `O=C(Nc1nc2ccccc2s1)Nc1ccccc1F` [Table 11: o-fluorophenyl, H, S], for which the minimal effective dose is under 6.2 mg/kg.

With `O=C(Nc1ccccc1)Nc1nc2c(ccc3ccccc32)s1` [Table 14: phenyl], the minimal effective dose was under 12.5 mg/kg.

For `Cc1ccc(NC(=O)Nc2nc3cc(C)c(C)cc3s2)cc1` [Table 11: p-tolyl, 5,6-dimethyl, S], the minimal effective dose was 100 mg/kg.

As to `Cc1cc2nc(NC(=O)Nc3ccccc3)sc2cc1C` [Table 11: phenyl, 5,6-dimethyl, S], the minimal effective dose came out at 100 mg/kg.

`CCOC(=O)c1ccc2[nH]c(NC(=O)Nc3cccc(C(F)(F)F)c3)nc2c1` [Table 3: m-trifluoromethylphenyl]: the minimal effective dose stood at 100 mg/kg.

On to `O=C(Nc1ccc(F)cc1)Nc1nc2cc3ccccc3cc2[nH]1` [Table 9: p-fluorophenyl], for which the minimal effective dose was over 25 mg/kg.

With `Cc1ccc(NC(=O)Nc2nc3cc(Cl)ccc3[nH]2)cc1` [Table 2: p-tolyl], the minimal effective dose stood at 50 mg/kg.

Regarding `O=C(Nc1ccccc1)Nc1nc2ccccc2n1-c1ccccc1` [Table 8: phenyl, phenyl], the minimal effective dose is 50 mg/kg.

In the case of `O=C(Nc1nc2c([N+](=O)[O-])cccc2[nH]1)Nc1ccccc1F` [Table 6: 4(7), o-fluorophenyl], the minimal effective dose stood at 3.1 mg/kg.

`O=C(Nc1nc2cc(Cl)ccc2o1)Nc1cccc2ccccc12` [Table 11: α-naphthyl, 5-Cl, O]: the minimal effective dose was 200 mg/kg.

On to `O=C(Nc1nc2cc(Cl)ccc2[nH]1)Nc1cccc2ccccc12` [Table 2: α-naphthyl], for which the minimal effective dose came to 6.2 mg/kg.

Turning to `O=C(Nc1nc2ccccc2[nH]1)Nc1cccc2ccccc12` [Table 1: α-naphthyl, H, N-(2-Benzimidazolyl)-N'-naphthylurea], the minimal effective dose stood at 3.1 mg/kg.

With `O=C(Nc1ccc(Cl)cc1)Nc1nc2cc(Cl)ccc2[nH]1` [Table 2: p-chlorophenyl], the minimal effective dose was found to be 6.2 mg/kg.

Turning to `Cc1ccccc1NC(=O)Nc1nc2c(ccc3ccccc32)s1` [Table 14: o-tolyl], the minimal effective dose was under 1.6 mg/kg.

For the compound `Cc1ccc(NC(=O)Nc2nc3ccc4ccccc4c3s2)cc1` [Table 15: p-tolyl], the minimal effective dose was over 25 mg/kg.

Turning to `O=C(Nc1ccc(Br)cc1)Nc1nc2ccccc2s1` [Table 11: p-bromophenyl, H, S], the minimal effective dose was 100 mg/kg.

As for `CCOC(=O)c1ccc2[nH]c(NC(=O)Nc3cccc4ccccc34)nc2c1` [Table 3: α-naphthyl], the minimal effective dose worked out at 6.2 mg/kg.

For `CN(C(=O)Nc1ccc(Cl)cc1)c1nc2ccccc2[nH]1` [Table 7: p-chlorophenyl, H], the minimal effective dose was found to be 50 mg/kg.

In the case of `Cc1cc2nc(NC(=O)Nc3ccc(F)cc3)sc2cc1C`, the minimal effective dose turned out to be 12.5 mg/kg.

For the compound `O=C(Nc1ccccc1)Nc1nc2cc(Cl)ccc2[nH]1` [Table 2: phenyl], the minimal effective dose amounted to 25 mg/kg.

With `CCOC(=O)c1ccc2[nH]c(NC(=O)Nc3ccccc3)nc2c1` [Table 3: phenyl], the minimal effective dose is under 25 mg/kg.

Consider `Cc1cc2nc(NC(=O)Nc3cccc(C(F)(F)F)c3)sc2cc1C`, for which the minimal effective dose came to 25 mg/kg.

Take `O=C(Nc1ccc(F)cc1)Nc1nc2ccccc2[nH]1` [Table 1: p-fluorophenyl, H]: the minimal effective dose amounted to 6.2 mg/kg.

On to `O=C(Nc1cccc(Cl)c1)Nc1nc2c(Cl)cccc2s1` [Table 11: m-chlorophenyl, 4-Cl, S], for which the minimal effective dose is under 50 mg/kg.

For the compound `COc1ccc2nc(NC(=O)Nc3ccc(C)cc3)sc2c1` [Table 11: p-tolyl, 6-CH3 O, S], the minimal effective dose is under 100 mg/kg.

Regarding `O=C(Nc1ccc(Br)cc1)Nc1nc2ccccc2[nH]1` [Table 1: p-bromophenyl, H], the minimal effective dose came to 100 mg/kg.

As for `O=C(Nc1cccc(Cl)c1)Nc1nc2cc(C(F)(F)F)ccc2[nH]1` [Table 4: am-chlorophenyl, CF3], the minimal effective dose was 50 to 200 mg/kg.

Consider `Cc1ccc(NC(=O)Nc2nc3c(ccc4ccccc43)s2)cc1` [Table 14: p-tolyl], for which the minimal effective dose is 6.2 mg/kg.

On to `O=C(Nc1ccccc1)Nc1nc2cc(Cl)c(Cl)cc2[nH]1` [Table 5: phenyl, Cl, Cl], for which the minimal effective dose is 12.5 mg/kg.

As to `CCOC(=O)c1ccc2[nH]c(NC(=O)Nc3ccccc3C)nc2c1` [Table 3: o-tolyl], the minimal effective dose turned out to be 25 mg/kg.

Regarding `CCOC(=O)c1ccc2[nH]c(NC(=O)Nc3cccc(C)c3)nc2c1` [Table 3: m-tolyl], the minimal effective dose was under 12.5 mg/kg.

Take `O=C(Nc1ccc(Cl)c(Cl)c1)Nc1nc2c(ccc3ccccc32)s1` [Table 14: 3,4-dichlorophenyl]: the minimal effective dose amounted to 3.1 mg/kg.

As to `O=C(Nc1cccc(Cl)c1)Nc1nc2ccccc2s1` [Table 11: m-chlorophenyl, H, S], the minimal effective dose came to 1.6 mg/kg.

For `CN(C(=O)Nc1ccccc1)c1nc2ccccc2s1` [Table 12: phenyl], the minimal effective dose is 50 mg/kg.

For the compound `Cc1cc2nc(NC(=O)Nc3ccc(Cl)c(Cl)c3)[nH]c2cc1C` [Table 5: 3,4-dichlorophenyl, CH3, CH3], the minimal effective dose amounted to 100 mg/kg.

Turning to `O=C(Nc1nc2cc(Cl)ccc2[nH]1)Nc1ccccc1Cl` [Table 2: o-chlorophenyl], the minimal effective dose came to 100 mg/kg.

Turning to `COc1ccccc1NC(=O)Nc1nc2cc(Cl)ccc2[nH]1` [Table 2: o-anisyl], the minimal effective dose was under 6.2 mg/kg.

Turning to `O=C(Nc1nc2c(s1)CCCC2)Nc1cccc2ccccc12` [Table 13: α-naphthyl], the minimal effective dose was under 50 mg/kg.

Take `O=C(Nc1nc2ccccc2o1)Nc1cccc2ccccc12` [Table 11: α-naphthyl, H, O]: the minimal effective dose was determined as 50 mg/kg.

Consider `COc1ccc(NC(=O)Nc2nc3ccccc3s2)cc1` [Table 11: p-anisyl, H, S], for which the minimal effective dose came out at 50 mg/kg.

In the case of `Cc1cccc(NC(=O)Nc2nc3c(ccc4ccccc43)s2)c1` [Table 14: m-tolyl], the minimal effective dose was found to be 3.1 mg/kg.

Consider `O=C(Nc1ccccc1)Nc1nc2cc3ccccc3cc2[nH]1` [Table 9: phenyl], for which the minimal effective dose amounted to 25 mg/kg.

`COc1ccc2nc(NC(=O)Nc3ccc(Br)cc3)sc2c1` [Table 11: p-bromophenyl, 6-CH3 O, S]: the minimal effective dose was 100 mg/kg.

For the compound `O=C(Nc1ccc(Cl)c(Cl)c1)Nc1nc2ccccc2[nH]1` [Table 1: 3,4-dichlorophenyl, H], the minimal effective dose stood at 0.8 mg/kg.

Regarding `O=C(Nc1nc2c(ccc3ccccc32)s1)Nc1ccccc1Cl` [Table 14: o-chlorophenyl], the minimal effective dose is 6.2 mg/kg.

As to `Cc1cc2nc(NC(=O)Nc3ccc(Cl)c(Cl)c3)sc2cc1C`, the minimal effective dose was 50 mg/kg.

For the compound `O=C(Nc1nc2ccccc2s1)Nc1ccccc1Cl` [Table 11: o-chlorophenyl, H, S], the minimal effective dose is under 50 mg/kg.

For the compound `O=C(Nc1nc2cc(C(F)(F)F)ccc2[nH]1)Nc1cccc2ccccc12` [Table 4: α-naphthyl, CF3], the minimal effective dose was under 50 mg/kg.

On to `O=C(Nc1nc2c(ccc3ccccc32)s1)Nc1ccccc1F` [Table 14: o-fluorophenyl], for which the minimal effective dose was 3.1 mg/kg.

`O=C(Nc1ccccc1)Nc1nc2cc(Cl)ccc2o1` [Table 11: phenyl, 5-Cl, O]: the minimal effective dose came out at 200 mg/kg.

For `COc1ccc2nc(NC(=O)Nc3ccccc3C)sc2c1` [Table 11: o-tolyl, 6-CH3 O, S], the minimal effective dose is under 50 mg/kg.

For `Cc1ccccc1NC(=O)Nc1nc2ccccc2[nH]1` [Table 1: o-tolyl, H], the minimal effective dose was found to be 25 mg/kg.

Take `CCOc1ccccc1NC(=O)Nc1nc2ccccc2s1` [Table 11: o-ethoxyphenyl, H, S]: the minimal effective dose was under 50 mg/kg.

Regarding `Cc1ccc2[nH]c(NC(=O)Nc3cccc4ccccc34)nc2c1` [Table 4: α-naphthyl, CH3], the minimal effective dose was under 0.4 mg/kg.

Regarding `O=C(Nc1ccccc1)Nc1nc2ccccc2o1` [Table 11: phenyl, H, O], the minimal effective dose was 50 mg/kg.

`O=C(Nc1ccc(Cl)cc1)Nc1nc2c(ccc3ccccc32)s1` [Table 14: p-chlorophenyl]: the minimal effective dose is under 100 mg/kg.

As to `Cc1cc2nc(NC(=O)Nc3cccc(Cl)c3)sc2cc1C`, the minimal effective dose worked out at 100 mg/kg.

As for `Cc1ccc(NC(=O)Nc2nc3ccccc3[nH]2)cc1` [Table 1: p-tolyl, H], the minimal effective dose stood at 6.2 mg/kg.

As for `Cc1cc2nc(NC(=O)Nc3cccc4ccccc34)sc2cc1C` [Table 11: α-naphthyl, 5,6-dimethyl, S], the minimal effective dose came out at 50 mg/kg.

Take `O=C(Nc1ccc(Cl)c(Cl)c1)Nc1nc2ccccc2s1` [Table 11: 3,4-dichlorophenyl, H, S]: the minimal effective dose amounted to 12.5 mg/kg.

In the case of `Cc1ccc(NC(=O)Nc2nc3cc(C)c(C)cc3[nH]2)cc1` [Table 5: p-tolyl, CH3, CH3], the minimal effective dose worked out at 3 mg/kg.

Take `O=C(Nc1cccc(Cl)c1)Nc1nc2c(ccc3ccccc32)[nH]1` [Table 10: m-chlorophenyl]: the minimal effective dose was found to be 0.05 mg/kg.

In the case of `CN(C(=O)Nc1ccc(Cl)cc1)c1nc2ccccc2s1` [Table 12: p-chlorophenyl], the minimal effective dose is under 50 mg/kg.

As to `O=C(Nc1ccccc1)Nc1nc2c(Cl)cccc2s1` [Table 11: phenyl, 4-Cl, S], the minimal effective dose is under 12.5 mg/kg.

With `Cc1ccc2[nH]c(NC(=O)Nc3ccccc3)nc2c1` [Table 4: phenyl, CH3], the minimal effective dose came to 100 mg/kg.

In the case of `COc1ccc2nc(NC(=O)Nc3cccc(Cl)c3)sc2c1` [Table 11: m-chlorophenyl, 6-CH3 O, S], the minimal effective dose was found to be 12.5 mg/kg.

The values above are taken from patent publication US4153709A, “N-Heterocyclic ureas as immune regulants” (Eli Lilly and Company, priority 1977, dated 1979).
